Our source for the Ki values is patent publication USRE37781E1, “Substituted cyclic carbonyls and derivatives thereof useful as retroviral protease inhibitors” (DuPont Pharmaceuticals Company, priority 1991, dated 2002).

The experiment has as its target single-chain tethered dimer of HIV protease (Human immunodeficiency virus 1, UniProt P04585). The experiment is described as follows: biochemical. It counts as biochemical. More on the design: fused on or other part: A second copy of the same protease unit is joined to the first by a short peptide tether, giving one polypeptide. The method, then:
HIV Protease Inhibition Assay—HPLC Method
Active protease was prepared as described therein by extraction with 67% acetic acid, dilution 33-fold with water, dialysis against water and then against a “refolding buffer” consisting of 20 mM MES, 1 mM dithiothreitol and 10% glycerol. Protease was stored as a stock preparation at 10 uM in refolding buffer.
Substrate: Peptide of sequence: aminobenzoyl-Ala-Thr-His-Gln-Val-Tyr-Phe(NO2)-Val-Arg-Lys-Ala containing p-nitrophenylalanine, was prepared by solid phase synthesis as previously described Cheng et al., op.cit. Stock solutions of 2 mM substrate were prepared in DMSO.
Inhibitory compounds were dissolved in sufficient DMSO to make 3 mM stock solutions. All further dilutions were prepared in “assay buffer”: 1M NaCl, 50 mM MES, pH 5.5, 1 mM EDTA, 1 mM DTT, […] glycerol.
Enzyme reaction: In a 2 ml screw-cap centrifuge tube were added 50 ul protease (final concentration 0.25 nM) and 0.1 ml inhibitory compound (final concentration […]). After 15 min preincubation at room temperature, the reaction was started with the addition of 0.05 ml substrate (final concentration 5 uM). Incubation was carried out at 30 C. for 1 hr. The reaction was stopped with 1 ml 0.1M ammonium hydroxide.
HPLC measurement of product formation: The product (aminobenzoyl-Ala-Thr-His-Gln-Val-Tyr) was separated from substrate on a Pharmacia MonoQ anion exchange column. The injection volume was 0.2 ml. The mobile phases were: A (20 mM trisHCl, pH 9.0, 0.02% sodium Azide, 10% acetonitrile), B (20 mM tris HCl, pH 9.0, 0.02% sodium azide, 0.5M ammonium formate, 10% acetonitrile). The mobile phases were pumped at 1 ml/min, with a gradient from 0 to 30% B in 5 min, 100% B for 4 min to wash the column, and a re-equilibration for 4 min. The retention time of the product was 3.6 min. Detection with a Shimadzu model RF535 fluorescence monitor was at 330 nm (excitation) and 430 (emission).

The mark [1] stands for this setting: Table 2d, HIV protease inhibition, HPLC method, read-out: HPLC K1.
Setting [2] is: Table 2d, class symbols, read-out: HPLC K1.
Where [3] appears, read: read-out: HPLC K1, Table 2d, class symbols.
Setting [4] is: read-out: HPLC Ki, Table 1d, lower part.
The mark [5] stands for this setting: read-out: HPLC K1, HIV protease inhibition, HPLC method, Table 2d.

The structures appear in SMILES notation. Where two headings read alike, the source gives them in different places.

As to `CC(C)CC1C(O)C(O)C(CC(C)C)N(Cc2ccccc2)C(=O)N1Cc1ccccc1` (stereo not drawn) [Example 16AD], the Ki (read-out: K4 HPLC, Table 2e) was less than 10 nM.
As to `O=C1N(Cc2ccc(CO)cc2)C(Cc2ccc(F)cc2)C(O)C(O)C(Cc2ccc(F)cc2)N1Cc1ccc(CO)cc1` (stereo not drawn) [20I], the Ki (Table 2i, read-out: HPLC Ki) is less than 10 nM.
For `O=C1N(Cc2ccc(CO)o2)C(Cc2ccccc2)C(O)C(O)C(Cc2ccccc2)N1Cc1ccc(CO)o1` (stereo not drawn) [15FY], the Ki (HIV protease inhibition, HPLC method, Table 2d, read-out: HPLC K1) is 10 to 1000 nM.
`COc1ccccc1CC1C(O)C(O)C(Cc2ccccc2OC)N(CC2CC2)C(=O)N1CC1CC1` (stereo not drawn) [Example 16S]: under “Table 2e, read-out: K4 HPLC”, the Ki was in the range of 10 to 1000 nM.
With `C=CCN1C(=O)N(CC=C)C(Cc2ccc(OC)cc2)C(O)C(O)C1Cc1ccc(OC)cc1` (stereo not drawn) [20AL], where the note is “Table 2i, read-out: HPLC Ki”, the Ki was less than 10 nM.
Regarding `CN1CCN(CCCN2C(=O)NC(Cc3ccccc3)C(O)C(O)C2Cc2ccccc2)CC1` (stereo not drawn) [15AP], the Ki under setting [1] is more than 1000 nM.
In the case of `O=C1N(Cc2ccccc2)[C@H](Cc2ccc(O)cc2)[C@H](O)[C@@H](O)[C@@H](Cc2ccc(O)cc2)N1Cc1ccccc1` [20AK], the Ki (Table 2i, read-out: HPLC Ki) is less than 10 nM.
As for `COc1ccc(CC2C(O)C(O)C(Cc3ccc(OC)cc3)N(Cc3ccc4ccccc4c3)C(=O)N2Cc2ccc3ccccc3c2)cc1` (stereo not drawn) [20AH], under “Table 2i, read-out: HPLC Ki”, the Ki is less than 10 nM.
For the compound `O=C1N(Cc2ccccc2)C(CCCCO)C(O)C(O)C(CCCCO)N1Cc1ccccc1` (stereo not drawn) [Example 16AO], where the note is “Table 2e, read-out: K4 HPLC”, the Ki was more than 1000 nM.
`CC(N)C(=O)Nc1cccc(CN2C(=O)N(Cc3cccc(NC(=O)C(C)N)c3)C(Cc3ccccc3)C(O)C(O)C2Cc2ccccc2)c1` (stereo not drawn) [15U]: under setting [2], the Ki is less than 10 nM.
As for `CCCCCC#CCN1C(=O)N(CC#CCCCCC)C(Cc2ccccc2)C(O)C(O)C1Cc1ccccc1` (stereo not drawn) [Example 14E], the Ki under setting [3] lay in the range of 10 to 1000 nM.
As to `O=C1N(Cc2ccccc2)C(Cc2ccccc2)C(O)C(O)C(Cc2ccccc2)N1Cc1ccccc1` (stereo not drawn) [Example 13Q], the Ki under setting [3] is more than 1000 nM.
For `O=C1N(CC2CC2)C(Cc2ccccc2)c2ncoc2C(Cc2ccccc2)N1CC1CC1` (stereo not drawn) [Example 7AD], the Ki under setting [4] was 10 to 1000 nM.
As for `C=CCN1C(=O)N(CCCC)C(C)C(O)C(O)C1C` (stereo not drawn) [Example 16F], the Ki (Table 2e, read-out: K4 HPLC) was more than 1000 nM.
Take `O=C1N(Cc2ccc3nnn(O)c3c2)C(Cc2ccccc2)C(O)C(O)C(Cc2ccccc2)N1Cc1ccc2nnn(O)c2c1` (stereo not drawn) [15CU]: the Ki under setting [1] fell in the range of 10 to 1000 nM.
In the case of `NC(Cc1ccccc1)C(=O)Nc1cccc(CN2C(=O)N(Cc3cccc(NC(=O)C(N)Cc4ccccc4)c3)C(Cc3ccccc3)C(O)C(O)C2Cc2ccccc2)c1` (stereo not drawn) [15V], the Ki under setting [2] is less than 10 nM.
With `O=C1N(Cc2ccccc2)C(Cc2ccc(OCCO)cc2)C(O)C(O)C(Cc2ccc(OCCO)cc2)N1Cc1ccccc1` (stereo not drawn) [20AM], the Ki (Table 2i, read-out: HPLC Ki) is less than 10 nM.
As for `C=CCN1C(=O)N(CC=C)C(C)C(O)C(O)C1C` (stereo not drawn) [Example 16E], the Ki (read-out: K4 HPLC, Table 2e) was more than 1000 nM.
As for `O=C1N(CC2CC2(c2ccccc2)c2ccccc2)C(Cc2ccccc2)C(O)C(O)C(Cc2ccccc2)N1CC1CC1(c1ccccc1)c1ccccc1` (stereo not drawn) [Example 14F], under setting [2], the Ki was in the range of 10 to 1000 nM.
`C=CCCCC1C(O)C(O)C(CCCC=C)N(CC=C)C(=O)N1CC=C` (stereo not drawn) [Example 16AR]: the Ki (Table 2e, read-out: K4 HPLC) was more than 1000 nM.
Consider `COC1C(OC)C(Cc2ccccc2)N(CC2CC2)C(=O)N(CC2CC2)C1Cc1ccccc1` (stereo not drawn) [Example 7AF], for which the Ki under setting [4] is more than 1000 nM.
As for `CCC(CC)CC1C(O)C(O)C(CC(CC)CC)N(Cc2ccccc2)C(=O)N1Cc1ccccc1` (stereo not drawn) [Example 16AM], the Ki (Table 2e, read-out: K4 HPLC) fell in the range of 10 to 1000 nM.
Regarding `O=C(NCc1cccnc1)c1cccc(CN2C(=O)N(CC3CC3)C(Cc3ccccc3)C(O)C(O)C2Cc2ccccc2)c1` (stereo not drawn) [15YD], the Ki under setting [1] is less than 10 nM.
In the case of `O=C1N(CCCCCn2cccn2)C(Cc2ccccc2)C(O)C(O)C(Cc2ccccc2)N1CCCCCn1cccn1` (stereo not drawn) [15FL], the Ki under setting [5] was more than 1000 nM.
As for `COc1ccc(CC2C(O)C(O)C(Cc3ccc(OC)cc3)N(Cc3ccc(CO)cc3)C(=O)N2Cc2ccc(CO)cc2)cc1` (stereo not drawn) [20AJ], for the setting “Table 2i, read-out: HPLC Ki”, the Ki is less than 10 nM.
As for `C=CCN1C(=O)N(CC=C)C(CCc2ccccc2)C(O)C(O)C1CCc1ccccc1` (stereo not drawn) [Example 16B], where the note is “read-out: K4 HPLC, Table 2e”, the Ki was more than 1000 nM.
Consider `COC(=O)c1ccc(CN2C(=O)N(Cc3ccc(C(=O)OC)cc3)C(Cc3ccc(OC)cc3)C(O)C(O)C2Cc2ccc(OC)cc2)cc1` (stereo not drawn) [20AI], for which the Ki (Table 2i, read-out: HPLC Ki) is more than 1000 nM.
Regarding `COC1C(O)C(Cc2ccccc2)N(CC2CC2)C(=O)N(CC2CC2)C1Cc1ccccc1` (stereo not drawn) [Example 7AE], under setting [4], the Ki is 10 to 1000 nM.
For `CON=C1C(O)C(Cc2ccccc2)N(CC2CC2)C(=O)N(CC2CC2)C1Cc1ccccc1` (stereo not drawn) [Example 7AC], the Ki under setting [4] lay within 10 to 1000 nM.
For the compound `CC(=O)c1ccc(CN2C(=O)N(Cc3ccc(C(C)=O)cc3)C(Cc3ccccc3)C(O)C(O)C2Cc2ccccc2)cc1` (stereo not drawn) [20J], where the note is “Table 2i, read-out: HPLC Ki”, the Ki was 10 to 1000 nM.
As to `O=C1N(CC2CC2CO)C(Cc2ccccc2)C(O)C(O)C(Cc2ccccc2)N1CC1CC1CO` (stereo not drawn) [Example 12L], the Ki under setting [2] is more than 1000 nM.
`CNc1noc2ccc(CN3C(=O)N(Cc4ccc5onc(NC)c5c4)C(Cc4ccccc4)C(O)C(O)C3Cc3ccccc3)cc12` (stereo not drawn) [15DK]: the Ki under setting [1] was less than 10 nM.
In the case of `CSc1ccc(CC2C(O)C(O)C(Cc3ccc(SC)cc3)N(Cc3ccccc3)C(=O)N2Cc2ccccc2)cc1` (stereo not drawn) [Example 16Q], the Ki (Table 2e, read-out: K4 HPLC) was less than 10 nM.
As to `C=CCN1C(=O)N(CC=C)C(C(C)C)C(O)C(O)C1C(C)C` (stereo not drawn) [Example 16C], the Ki (read-out: K4 HPLC, Table 2e) lay in the range of 10 to 1000 nM.
In the case of `O=C1N(Cc2ccccc2)C(Cc2ccccc2)C(O)C(O)C(Cc2ccccc2)N1Cc1ccccc1` (stereo not drawn) [Example 13Y], under setting [3], the Ki was more than 1000 nM.
Turning to `C=CCN1C(=O)N(CC=C)C(CC(C)C)C(O)C(O)C1CC(C)C` (stereo not drawn) [Example 16I], where the note is “read-out: K4 HPLC, Table 2e”, the Ki was less than 10 nM.
Regarding `ON=C1N(Cc2ccccc2)C(Cc2ccccc2)C(O)C(O)C(Cc2ccccc2)N1Cc1ccccc1` (stereo not drawn) [Example 17A], the Ki lay within 10 to 1000 nM (Table 2f, read-out: HPLC Ki); 10 to 1000 nM (second table headed Table 2f, read-out: HPLC Ki); 10 to 1000 nM (third table headed Table 2f, read-out: HPLC Ki).
For `O=C(NC(Cc1ccccc1)C(=O)Nc1cccc(CN2C(=O)N(Cc3cccc(NC(=O)C(Cc4ccccc4)NC(=O)OCc4ccccc4)c3)C(Cc3ccccc3)C(O)C(O)C2Cc2ccccc2)c1)OCc1ccccc1` (stereo not drawn) [15T], the Ki under setting [2] is less than 10 nM.
Regarding `O=C1N(CC2CC2)C(Cc2ccccc2)C(O)C(OCc2ccccc2)C(Cc2ccccc2)N1CC1CC1` (stereo not drawn) [Example 7AH], the Ki under setting [4] is more than 1000 nM.
In the case of `O=C1N(Cc2cccc(O)c2)C(Cc2ccc(F)cc2)C(O)C(O)C(Cc2ccc(F)cc2)N1Cc1cccc(O)c1` (stereo not drawn) [Example 20G], where the note is “read-out: HPLC Ki, Table 2i”, the Ki was less than 10 nM.
Consider `C=CC(=C)CN1C(=O)N(CC(=C)C=C)C(Cc2ccccc2)C(O)C(O)C1Cc1ccccc1` (stereo not drawn) [Example 15FX], for which the Ki under setting [5] lay in the range of 10 to 1000 nM.
For the compound `Cc1cncc(OCc2ccccc2)c1CN1C(=O)N(Cc2c(C)cncc2OCc2ccccc2)C(Cc2ccccc2)C(O)C(O)C1Cc1ccccc1` (stereo not drawn) [Example 14J], the Ki under setting [2] fell in the range of 10 to 1000 nM.
With `O=C1N(CCCCCN2CCOCC2)C(Cc2ccccc2)C(O)C(O)C(Cc2ccccc2)N1CCCCCN1CCOCC1` (stereo not drawn) [15FM], under setting [5], the Ki is more than 1000 nM.
Take `CCCCN1C(=O)N(CCCC)C(CC(C)C)C(O)C(O)C1CC(C)C` (stereo not drawn) [Example 16AE]: the Ki (read-out: K4 HPLC, Table 2e) was in the range of 10 to 1000 nM.
Regarding `O=C1N(Cc2ccccc2)C(Cc2ccc3ccccc3c2)C(O)C(O)C(Cc2ccc3ccccc3c2)N1Cc1ccccc1` (stereo not drawn) [16K], under “Table 2e, read-out: K4 HPLC”, the Ki was less than 10 nM.
Consider `O=C1N(Cc2ccccc2)C(CCCCCO)C(O)C(O)C(CCCCCO)N1Cc1ccccc1` (stereo not drawn) [Example 16AN], for which the Ki (Table 2e, read-out: K4 HPLC) is more than 1000 nM.
As to `CC(C)C1C(O)C(O)C(C(C)C)N(CC2CC2)C(=O)N1CC1CC1` (stereo not drawn) [Example 16D], under “read-out: K4 HPLC, Table 2e”, the Ki lay in the range of 10 to 1000 nM.
In the case of `CCOC(=O)COc1cccc(CC2C(O)C(O)C(Cc3cccc(OCC(=O)OCC)c3)N(CC3CC3)C(=O)N2CC2CC2)c1` (stereo not drawn) [20AV], the Ki (Table 2i, read-out: HPLC Ki) was 10 to 1000 nM.
Regarding `O=C1N(Cc2cccc(-c3nc4ccccc4[nH]3)c2)C(Cc2ccccc2)C(O)C(O)C(Cc2ccccc2)N1Cc1cccc(-c2nc3ccccc3[nH]2)c1` (stereo not drawn) [15AX], the Ki under setting [1] was 10 to 1000 nM.
